Counter-ions that a name gives are not always drawn.
Experiments:
[1] = test system: Adipose Protein 2 (aP2) expression; assay: Stimulation of aP2 expression in 3T3-L1 cells (real time PCR); format: cell-based, mouse; conditions: 10 μmol/L
Description: 3T3-L1 mouse preadipocytes are cultivated in DMEM (Dulbecco's modified eagle medium) with 10% foetal calf serum (FBS). PC12W cells are cultivated in DMEM with 5% FBS and 10% equine serum. In both cases the media contain 1% penicillin/streptomycin.
The differentiation of adipocytes is induced 2-3 days after cell confluence by adding a differentiating solution. This contains • 1 μmol/L of dexamethasone, • 0.5 mmol/L of 3-isobutyl-1-methylxanthine, • 1.67 μmol/L of insulin, and • 10% FBS.
Then the cells are stimulated for another 48 hours before finally being analysed (day 4).
RNA isolation, reverse transcription and quantification of gene expression are carried out using an ABI 7000 sequence detection system-for real time PCR (described in Janke et al, Diabetes 51:1699-707, 2002). The endogenous control used for the real time PCR consists of the household genes 18S rRNA and hypoxanthine guanine phosphoribosyl transferase (hprt).

[2] = biological target: T1, human PPARgamma-ligand binding domain (LBD) (Homo sapiens, UniProt P37231); assay: SPA assay: displacement of 3H-labelled rosiglitazone from GST-PPARgamma-LBD; conditions: NSB 217, Bmax 911
T1 sequence (P37231 205-505): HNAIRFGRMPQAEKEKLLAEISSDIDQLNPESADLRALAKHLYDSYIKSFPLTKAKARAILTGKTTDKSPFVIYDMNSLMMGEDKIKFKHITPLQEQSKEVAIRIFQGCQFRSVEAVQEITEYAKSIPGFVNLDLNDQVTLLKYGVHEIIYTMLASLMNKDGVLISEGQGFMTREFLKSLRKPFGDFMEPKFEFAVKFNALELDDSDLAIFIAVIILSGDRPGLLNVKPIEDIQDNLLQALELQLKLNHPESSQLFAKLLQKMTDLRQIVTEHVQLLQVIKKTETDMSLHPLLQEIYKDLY
T1 sequence (P19793 220-461 partner limits assumed): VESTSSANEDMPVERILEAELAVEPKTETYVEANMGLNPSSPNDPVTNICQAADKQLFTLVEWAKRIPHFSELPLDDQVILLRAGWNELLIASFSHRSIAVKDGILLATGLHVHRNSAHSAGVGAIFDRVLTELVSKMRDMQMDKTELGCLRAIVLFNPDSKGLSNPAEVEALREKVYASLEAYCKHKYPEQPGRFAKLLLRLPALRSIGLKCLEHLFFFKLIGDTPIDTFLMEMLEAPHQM
Protocol: Protein containing the human PPARgamma-ligand binding domain (LBD) is prepared as a GST fusion protein in E.coli and purified by affinity chromatography. To do this, a DNA section which codes for the amino acids 205-505 of the human PPARgamma2 transcription factor (cf. Genbank entry U79012) is subcloned via the additionally introduced restriction cutting sites BamH I and Xho I into the expression vector pGEX-4T-1 (Amersham) and the sequence of the section is monitored. […] The bacteria are pelleted after the induction and frozen in batches in PBS, pH 7.4. After opening up in a French Press, the dissolved GST-PPARgamma-LBD-fusion protein is purified using a GSTrap column (Pharmacia). Elution is carried out by the addition of 20 mM reduced glutathione. The GST-PPARgamma-LBD-protein fractions are desalinated using a HiTrap desalting column (Pharmacia) and the protein concentration is determined using a standard assay. Protein containing the human RXRalpha ligand binding domain (LBD) is prepared as a His tag fusion protein in E.coli and purified by affinity chromatography. To do this a DNA section which codes for the amino acids 220-461 of the human RXRalpha transcription factor (cf. Genbank entry NM_002957, nt 729-1457) is subcloned via the additionally introduced restriction cutting sites BamH I and Not I into the expression vector pET28c (Novagen) and the sequence of the section is monitored. […] The bacteria are pelleted after the expression and frozen in batches in PBS, pH 7.4. After opening up in a French Press, the dissolved His-RXRalpha-LBD-fusion protein is purified using a HiTrap chelating column (Pharmacia). Elution is carried out using a 500 mM imidazole step. The His-RXRalpha-LBD protein fractions are desalinated using a HiTrap desalting column (Pharmacia) and the protein concentration is determined using a standard assay. A description of the SPA assay format can be found in Mukheriee R et al., J Steroid Biochem Mol Biol (2002) 81:217-225.

[3] = biological target: T2, human PPARgamma-ligand binding domain (LBD) (Homo sapiens, UniProt P37231); assay: AlphaScreen: recruiting of biotinylated LXXLL peptide of cofactor CBP to GST-PPARgamma-LBD; format: biochemical; conditions: concentrations of up to 50 μM
T2 construct: codes for the amino acids 205-505 of the human PPARgamma2 transcription factor; made in house; host or cells: E. coli BL21(DE3), vector pGEX-4T-1
T2 sequence (P37231 205-505): T1 sequence (P37231 205-505)
Protocol: Protein containing the human PPARgamma-ligand binding domain (LBD) is prepared as a GST fusion protein in E.coli and purified by affinity chromatography. […] The fusion protein is expressed in the E.coli strain BL21(DE3) recommended for pGEX vectors after induction with 0.2 mM IPTG for 4 hours at 25° C. The bacteria are pelleted after the induction and frozen in batches in PBS, pH 7.4. After opening up in a French Press, the dissolved GST-PPARgamma-LBD-fusion protein is purified using a GSTrap column (Pharmacia). Elution is carried out by the addition of 20 mM reduced glutathione.
The GST-PPARgamma-LBD-protein fractions are desalinated using a HiTrap desalting column (Pharmacia) and the protein concentration is determined using a standard assay.
The assay buffer consists of 25 mM Hepes pH7.4, 100 mM NaCl,1 mM DTT, 0.1% Tween-20, 0.1% BSA. […] The final DMSO concentration in the assay is 1% (v/v). A 1% DMSO solution is used as the background control (NSB). The measurement is done using a Packard fusion measuring device.

[4] = biological target: T3, ligand binding domain of the human PPARgamma2 transcription factor (Gal4 DNA binding domain fusion) (Homo sapiens, UniProt P37231); assay: Luciferase activity in stably transformed PPARgamma reporter cell line (CHO-K1 clone 11); format: cell-based; conditions: 24 hours
T3 construct: codes for amino acids 205-505 of the human PPARgamma2 transcription factor; expressed in transfected cells
T3 sequence (P37231 205-505): T1 sequence (P37231 205-505)
Protocol: The resulting plasmid pFA-CMV/hPPARgamma2-LBD codes N-terminally of the PPARgamma-LBD in the same reading frame for a Gal4 DNA binding domain. In addition the plasmid codes for a neomycin resistance.
The cell line CHO-K1 (ATCC CCL-61) is cotransfected with the plasmids pFA-CMV/hPPARgamma2-LBD and pFR-Luc (Stratagene). pFR-Luc codes for the luciferase gene under the control of a five-times repeated yeast Gal4 binding site. The transfection is carried out with lipofectamine2000 in accordance with the manufacturer's instructions.
After six days' cultivation the cells are passaged and kept in culture for another 10 days. The resulting neomycin-resistant colonies are picked out under the microscope and transferred into 96 well-dishes and cultured.
The test substances are brought to 100 times the desired concentration with a suitable solvent, e.g. DMSO, and diluted 1:100 with the medium placed in the cell culture plate. The solvent used, e.g. DMSO, is used as the background control in the same concentration.
Luminescence is measured after a five minute wait using a Packard TopCount NXT. The luciferase activity is obtained by integrating the relative luciferase units (RLU) of the first ten seconds after the start of measurement.

[5] = animal model; cited from earlier work
[6] = Dissolution of active substances from tablets; format: physicochemical; conditions: 900 ml 0.1 M phosphate buffer pH 7.5, 75 rpm

Row | SMILES | stimulation of aP2 expression, factor [1] | SPA signal, bound 3H-rosiglitazone (MW) ([2]; 1.00E−04 M test substance) | SPA signal, bound 3H-rosiglitazone (MW) ([2]; 1.00E−05 M test substance) | SPA signal, bound 3H-rosiglitazone (MW) ([2]; 1.00E−06 M test substance) | SPA signal, bound 3H-rosiglitazone (MW) ([2]; 1.00E−07 M test substance) | SPA signal, bound 3H-rosiglitazone (MW) ([2]; 3.00E−05 M test substance) | SPA signal, bound 3H-rosiglitazone (MW) ([2]; 3.00E−06 M test substance) | SPA signal, bound 3H-rosiglitazone (MW) ([2]; 3.00E−07 M test substance) | direct activation of the PPARgamma-LBD / recruiting of the LXXLL peptide [3] | luciferase activity (MW) ([4]; 1.00E−04 M) [RLU] | luciferase activity (MW) ([4]; 1.00E−05 M) [RLU] | luciferase activity (MW) ([4]; 1.00E−06 M) [RLU] | luciferase activity (MW) ([4]; 3.00E−05 M) [RLU] | luciferase activity (MW) ([4]; 3.00E−06 M) [RLU] | luciferase activity (MW) ([4]; 3.00E−07 M) [RLU] | insulin sensitivity [5] | dissolved after 30 minutes ([6]; first batch) [%] | dissolved after 30 minutes ([6]; second batch) [%] | dissolved after 30 minutes ([6]; third batch) [%]
1 | CCc1ccc(CCOc2ccc(CC3SC(=O)NC3=O)cc2)nc1 (stereo not drawn) [pioglitazone] | 4.5±1 | – | – | – | – | – | – | – | – | – | – | – | – | – | – | – | – | – | –
2 | CCCCc1nc(Cl)c(CO)n1Cc1ccc(-c2ccccc2-c2nn[nH]n2)cc1 [losartan] | – | 611 | 787 | 901 | 915 | 784 | 814 | 835 | does not result in any direct activation | 11322 | 709 | 589 | 3271 | 672 | 874 | – | – | – | –
3 | CCCCC1=NC2(CCCC2)C(=O)N1Cc1ccc(-c2ccccc2-c2nnn[nH]2)cc1 [irbesartan] | – | 510 | 723 | 815 | 913 | 648 | 779 | 810 | does not result in any direct activation | 29600 | 3292 | 657 | 22133 | 1028 | 491 | Improvement to the insulin sensitivity | – | – | –
4 | CCCc1nc2c(C)cc(-c3nc4ccccc4n3C)cc2n1Cc1ccc(-c2ccccc2C(=O)O)cc1 [telmisartan sodium salt] | – | – | – | – | – | – | – | – | – | – | – | – | – | – | – | – | 92±1.5 | 96±1.8 | 100±1.0
